Drawing on US10450318B2, “CXCR4 receptor antagonists” (BRISTOL-MYERS SQUIBB COMPANY, priority 2015, dated 2019), this text covers IC50 for 29 compounds.

The target of the assay is T1, CXCR4 receptors (Homo sapiens, UniProt P61073).
T1 construct: expressing endogenous CXCR4 receptors; endogenous in cells; host or cells: CCRF-CEM (human T lymphoblast cells)
Description: CXCR4-CEM calcium flux assay, antagonist mode (inhibition of SDF-1α-induced calcium flux). The note with it: inhibition of calcium flux induced by 4 nM SDF-1α in CCRF-CEM cells. The assay is classed as cell-based. As to the method: Exemplary compounds of the invention were tested for their ability to induce or inhibit calcium flux in CCRF-CEM cells. […] CXCR4-CEM Calcium Flux Assays. […] The cells were then equilibrated to room temperature for 30 minutes before assay. […] The serially diluted compounds were diluted to working concentrations with the same assay buffer to 0.5% DMSO. […] Activity of the compounds to induce calcium flux was monitored by FDSS in the “agonist mode” for 90 sec. For “antagonist mode” assessment, the cells are subsequently incubated for 25 min at room temperature. SDF-1α (R&D System Cat#350-NS/CF) was then added at a final concentration of 4 nM to stimulate the cells. Inhibition of SDF-1α-induced calcium flux was monitored by FDSS6000 for 90 sec. […] After correcting for background, EC50 values were determined. […] Inhibition data for the test compound over a range of concentrations was plotted as percentage inhibition of the test compound as compared to an internal control compound.
For orientation: Calcium flux is commonly read through the fluorescence of an indicator in the cells.

Molecules are shown by their SMILES. pIC50: −log10 of the molar value.

T1 sequence (P61073 whole entry): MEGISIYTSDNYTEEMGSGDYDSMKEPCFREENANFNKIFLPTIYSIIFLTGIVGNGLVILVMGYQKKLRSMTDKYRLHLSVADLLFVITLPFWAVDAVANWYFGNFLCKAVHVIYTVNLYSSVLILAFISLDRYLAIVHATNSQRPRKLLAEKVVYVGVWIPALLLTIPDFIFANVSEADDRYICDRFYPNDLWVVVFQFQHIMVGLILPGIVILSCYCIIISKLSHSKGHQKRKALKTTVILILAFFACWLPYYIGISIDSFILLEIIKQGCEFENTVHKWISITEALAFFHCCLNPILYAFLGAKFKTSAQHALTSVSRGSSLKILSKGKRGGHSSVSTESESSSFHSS

Consider `CN(Cc1cn2c(N3CCN(C(=O)Nc4ccccc4)CC3)nccc2n1)[C@H]1CCCc2cccnc21` [Example 43, 4-[2-({methyl[(S)-5,6,7,8-tetrahydroquinolin-8-yl]amino}methyl)imidazo[1,2-c]pyrimidin-5-yl]-N-phenylpiperazine-1-carboxamide], for which the pIC50 – broadly, the IC50 on a negative log10 scale, so that one unit is a factor of ten – was 6.89.
The value for `CN1CCC(N2CCN(c3nccc4nc(CN(C)[C@H]5CCCc6cccnc65)cn34)CC2)CC1` [Example 38, (S)-N-methyl-N-({5-[4-(1-methylpiperidin-4-yl)piperazin-1-yl]imidazo[1,2-c]pyrimidin-2-yl}methyl)-5,6,7,8-tetrahydroquinolin-8-amine] was 6.38; that for `CN(Cc1cn2c(N3CC4CNC4C3)nccc2n1)[C@H]1CCCc2cccnc21` (stereo partly drawn) [Example 88, (8S)-N-((5-(3,6-diazabicyclo[3.2.0]heptan-3-yl)imidazo[1,2-c]pyrimidin-2-yl)methyl)-N-methyl-5,6,7,8-tetrahydroquinolin-8-amine] was 6.66.
On to `CN(Cc1cn2c(N3CCN4CCOCC4C3)nccc2n1)[C@H]1CCCc2cccnc21` (single isomer, unassigned) [Example 92], for which the pIC50 was 6.54.
The value for `CN(Cc1cn2c(N3CCN(CC(c4ccccc4)c4ccccc4)CC3)nccc2n1)[C@H]1CCCc2cccnc21` [Example 39, (S)-N-({5-[4-(2,2-diphenylethyl)piperazin-1-yl]imidazo[1,2-c]pyrimidin-2-yl}methyl)-N-methyl-5,6,7,8-tetrahydroquinolin-8-amine] was 7.20; that for `CN(Cc1cn2c(N3CCN(CC4CCCO4)CC3)nccc2n1)[C@H]1CCCc2cccnc21` (stereo partly drawn) [Example 58, (S)-N-methyl-N-({5-[4-(oxolan-2-ylmethyl)piperazin-1-yl]imidazo[1,2-c]pyrimidin-2-yl}methyl)-5,6,7,8-tetrahydroquinolin-8-amine] was 7.22.
The result for `CN(Cc1cn2c(N3CCN(Cc4ccccn4)CC3)nccc2n1)[C@H]1CCCc2cccnc21` [Example 55, (S)-N-methyl-N-({5-[4-(pyridin-2-ylmethyl)piperazin-1-yl]imidazo[1,2-c]pyrimidin-2-yl}methyl)-5,6,7,8-tetrahydroquinolin-8-amine] reads 8.05; that for `CN(Cc1cn2c(N3CCN(CC(=O)O)CC3)nccc2n1)[C@H]1CCCc2cccnc21` [Example 50, 2-{4-[2-({methyl[(S)-5,6,7,8-tetrahydroquinolin-8-yl]amino}methyl)imidazo[1,2-c]pyrimidin-5-yl]piperazin-1-yl}acetic acid], 7.04.
The result for `CN1CCN(c2nccc3nc(CN(C)[C@H]4CCCc5cccnc54)cn23)C[C@H]1CO` [Example 99, ((S)-1-methyl-4-(2-((methyl((S)-5,6,7,8-tetrahydroquinolin-8-yl)amino)methyl)imidazo[1,2-c]pyrimidin-5-yl)piperazin-2-yl)methanol] reads 7.57; that for `CN(Cc1cn2c(N3CCN4CCCCC4C3)nccc2n1)[C@H]1CCCc2cccnc21` (stereo partly drawn) [Example 90, (8S)-N-methyl-N-((5-(octahydro-2H-pyrido[1,2-a]pyrazin-2-yl)imidazo[1,2-c]pyrimidin-2-yl)methyl)-5,6,7,8-tetrahydroquinolin-8-amine], 8.60; that for `CN(Cc1cn2c(N3CCNC(c4ccccc4)C3)nccc2n1)[C@H]1CCCc2cccnc21` (single isomer, unassigned) [Example 78], 7.96.
On to `CN(Cc1cn2c(N3CCN(S(C)(=O)=O)CC3)nccc2n1)[C@H]1CCCc2cccnc21` [Example 15, (S)—N-Methyl-N-((5-(4-(methylsulfonyl)piperazin-1-yl)imidazo[1,2-c]pyrimidin-2-yl)methyl)-5,6,7,8-tetrahydroquinolin-8-amine], for which the pIC50 was 6.12.
The value for `CN1CCCC2CN(c3nccc4nc(CN(C)[C@H]5CCCc6cccnc65)cn34)CC21` (stereo partly drawn) [Example 103, (8S)-N-methyl-N-((5-(1-methyloctahydro-6H-pyrrolo[3,4-b]pyridin-6-yl)imidazo[1,2-c]pyrimidin-2-yl)methyl)-5,6,7,8-tetrahydroquinolin-8-amine] was 6.59.
For `CN(Cc1cn2c(N3CCN(CC4CC4)CC3)nccc2n1)[C@H]1CCCc2cccnc21` [Example 21, (8S)-N-({5-[4-(cyclopropylmethyl)piperazin-1-yl]imidazo[1,2-c]pyrimidin-2-yl}methyl)-N-methyl-5,6,7,8-tetrahydroquinolin-8-amine], the pIC50 is 7.77.
The value for `CN1CCC2CN(c3nccc4nc(CN(C)[C@H]5CCCc6cccnc65)cn34)CC21` (stereo partly drawn) [Example 101, (8S)-N-methyl-N-((5-(1-methylhexahydropyrrolo[3,4-b]pyrrol-5(1H)-yl)imidazo[1,2-c]pyrimidin-2-yl)methyl)-5,6,7,8-tetrahydroquinolin-8-amine] was 6.66; that for `CN(Cc1cn2c(N3CCN(C(=O)OC(C)(C)C)CC3)nccc2n1)[C@H]1CCCc2cccnc21` [Example 3, (S)-tert-Butyl 4-(2-((methyl(5,6,7,8-tetrahydroquinolin-8-yl)amino)methyl)imidazo[1,2-c]pyrimidin-5-yl)piperazine-1-carboxylate] was less than 4.52; that for `CN(Cc1cn2c(N3CCN(S(=O)(=O)c4ccccc4)CC3)nccc2n1)[C@H]1CCCc2cccnc21` [Example 63, (S)-N-({5-[4-(benzenesulfonyl)piperazin-1-yl]imidazo[1,2-c]pyrimidin-2-yl}methyl)-N-methyl-5,6,7,8-tetrahydroquinolin-8-amine] was 4.78.
The value for `CN(Cc1cn2c(N3CCN(CC4CCOC4)CC3)nccc2n1)[C@H]1CCCc2cccnc21` (stereo partly drawn) [Example 32, (S)-N-methyl-N-({5-[4-(oxolan-3-ylmethyl)piperazin-1-yl]imidazo[1,2-c]pyrimidin-2-yl}methyl)-5,6,7,8-tetrahydroquinolin-8-amine] was 6.51.
The result for `CN1CCN(c2nccc3nc(CN(C)[C@H]4CCCc5cccnc54)cn23)CC1` [Example 4, (S)—N-Methyl-N-((5-(4-methylpiperazin-1-yl)imidazo[1,2-c]pyrimidin-2-yl)methyl)-5,6,7,8-tetrahydroquinolin-8-amine] reads 8.60; that for `COC(=O)N1CCN(c2nccc3nc(CN(C)[C@H]4CCCc5cccnc54)cn23)CC1` [Example 13, (S)-Methyl 4-(2-((methyl(5,6,7,8-tetrahydroquinolin-8-yl)amino)methyl)imidazo[1,2-c]pyrimidin-5-yl)piperazine-1-carboxylate], 5.25; that for `CN(Cc1cn2c(N3CCN(CC4CCCC4)CC3)nccc2n1)[C@H]1CCCc2cccnc21` [Example 31, (S)-N-({5-[4-(cyclopentylmethyl)piperazin-1-yl]imidazo[1,2-c]pyrimidin-2-yl}methyl)-N-methyl-5,6,7,8-tetrahydroquinolin-8-amine], 6.77.
For the compound `CN(Cc1cn2c(N3CC4CCNC4C3)nccc2n1)[C@H]1CCCc2cccnc21` (stereo partly drawn) [Example 94, (8S)-N-((5-(hexahydropyrrolo[3,4-b]pyrrol-5(1H)-yl)imidazo[1,2-c]pyrimidin-2-yl)methyl)-N-methyl-5,6,7,8-tetrahydroquinolin-8-amine], the pIC50 was 7.19.
The value for `CN(Cc1cn2c(N3CCN(Cc4cccc(Cl)c4)CC3)nccc2n1)[C@H]1CCCc2cccnc21` [Example 25, (S)-N-[(5-{4-[(3-chlorophenyl)methyl]piperazin-1-yl}imidazo[1,2-c]pyrimidin-2-yl)methyl]-N-methyl-5,6,7,8-tetrahydroquinolin-8-amine] was 7.92; that for `CN(Cc1cn2c(N3CCNCC3)nccc2n1)[C@H]1CCCc2cccnc21` [Example 5, (S)—N-Methyl-N-((5-(piperazin-1-yl)imidazo[1,2-c]pyrimidin-2-yl)methyl)-5,6,7,8-tetrahydroquinolin-8-amine] was 8.09; that for `CN(Cc1cn2c(N3CCN(CCO)CC3)nccc2n1)[C@H]1CCCc2cccnc21` [Example 11, (S)-2-(4-(2-((Methyl(5,6,7,8-tetrahydroquinolin-8-yl)amino)methyl)imidazo[1,2-c]pyrimidin-5-yl)piperazin-1-yl)ethanol] was 7.89.
The result for `CN(Cc1cn2c(N3CCC(N)C3)nccc2n1)[C@H]1CCCc2cccnc21` (stereo partly drawn) [Example 74, (8S)-N-((5-(3-aminopyrrolidin-1-yl)imidazo[1,2-c]pyrimidin-2-yl)methyl)-N-methyl-5,6,7,8-tetrahydroquinolin-8-amine] reads 7.10; that for `CCOC(=O)CN1CCN(c2nccc3nc(CN(C)[C@H]4CCCc5cccnc54)cn23)CC1` [Example 48, ethyl 2-{4-[2-({methyl[(S)-5,6,7,8-tetrahydroquinolin-8-yl]amino}methyl)imidazo[1,2-c]pyrimidin-5-yl]piperazin-1-yl}acetate], 6.52.
For `CN1CCC2CN(c3nccc4nc(CN(C)[C@H]5CCCc6cccnc65)cn34)CC21` (stereo partly drawn) [Example 100, (8S)-N-methyl-N-((5-(1-methylhexahydropyrrolo[3,4-b]pyrrol-5(1H)-yl)imidazo[1,2-c]pyrimidin-2-yl)methyl)-5,6,7,8-tetrahydroquinolin-8-amine], the pIC50 is 6.68.
The result for `CN(Cc1cn2c(N3CCN(Cc4ccncc4)CC3)nccc2n1)[C@H]1CCCc2cccnc21` [Example 29, (S)-N-methyl-N-({5-[4-(pyridin-4-ylmethyl)piperazin-1-yl]imidazo[1,2-c]pyrimidin-2-yl}methyl)-5,6,7,8-tetrahydroquinolin-8-amine] reads 7.11.
